# In patent US5861476A, “Peptides and compounds that bind to the IL-1 receptor” (Affymax Technologies N.V., priority 1995, dated 1999):
# Where a SMILES comes first, the peptide text is derived from it. [ ]: non-standard residue; d: D form. Bpa = N[C@@H](Cc1ccc(C(=O)c2ccccc2)cc1)C(=O)O; 1Nal = N[C@@H](Cc1cccc2ccccc12)C(=O)O; Aze = O=C(O)[C@@H]1CCN1; Aib = CC(C)(N)C(=O)O
# Biological target: T1, IL-1RtI (Homo sapiens, UniProt P14778)
# T1 construct: made in house; host or cells: recombinant host cells (one form soluble from baculovirus transformed host cells; another PIG-tailed and cleaved from the cell surface)
# T1 sequence (P14778 18-336): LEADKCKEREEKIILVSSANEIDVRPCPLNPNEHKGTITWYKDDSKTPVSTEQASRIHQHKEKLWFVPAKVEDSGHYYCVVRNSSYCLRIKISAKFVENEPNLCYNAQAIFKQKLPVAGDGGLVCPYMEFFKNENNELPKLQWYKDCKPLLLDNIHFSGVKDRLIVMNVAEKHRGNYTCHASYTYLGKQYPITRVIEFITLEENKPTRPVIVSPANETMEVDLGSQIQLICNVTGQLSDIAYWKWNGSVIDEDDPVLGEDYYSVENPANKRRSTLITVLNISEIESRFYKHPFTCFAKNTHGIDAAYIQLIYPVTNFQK
# Experiment: Inhibition of 125I-IL-1α binding to IL-1RtI (Example 3)
# Settings: inhibition of 125I-IL-1α binding to IL-1RtI; soluble peptide unless marked *
# Experimental: This example provides the results of experiments conducted to determine an approximate IC50 for certain peptides of the invention. IC50 as used herein refers to the concentration of a compound which will inhibit 50% of the binding between a receptor and its ligand, e.g. IL-1RtI and IL-1. Stock solutions of each peptide were prepared. The appropriate amount of the peptide was dissolved in DMSO, and then nineteen volumes of binding buffer (RPMI 1640, 1% BSA, 20 mM HEPES, pH 7.2-7.3, and 0.1% sodium azide) were added to yield a 1 mM peptide, 5% DMSO stock solution.
# One assay utilized a truncated IL-1RtI which had been immobilized on 96-well plates with an appropriate antibody, typically a non-blocking high affinity antibody. In other assays, cells expressing "full-length" IL-1RtI were used with results that yielded IC50 values about 5 to 10 fold lower than those determined using the truncated receptor. The cells were seeded onto Falcon 3072 96-well plates at about 10^5 cells per well, and the plates were incubated overnight at 37° C. in media containing serum. The following morning, the cells were checked to ensure that the cells were confluent and adhered to the bottom of the wells.
# According to either assay protocol, the plates were then washed three times with binding buffer, and then 50 μl of binding buffer and 25 μl of a peptide solution (either the stock solution or a dilution thereof; each stock was subjected to five three fold dilutions) were added to each well. Then 25 μl of binding buffer containing ^125 I-IL-1α (final concentration of 90 pM) were added to each well to begin the assay. Each assay was carried out in duplicate. The plates were then incubated for two hours at 4° C. For peptides having particularly high affinities, the assay was run in 24 well plates allowing for higher levels of ligand (possible total volume of 2.5 ml instead of 100 μl in the 96 well plate), thereby minimizing the potential for ligand depletion.
# After the two hour incubation, the wells were rinsed three times with ice cold PBS (a semi-automated cell harvesting device was used to conduct the rinse). The receptors or cells were then detached from the plates by adding 100 μl of 0.1N NaOH to each well and incubating the plates at room temperature for 20 minutes. After the 20 minute incubation, about 75 μl of the suspension was counted on a gamma counter, and the IC50 for each peptide was determined using computer assistance and the results of the gamma counting.
row,Compound,IC50
1,C[C@@H](O)[C@H](NC(=O)[C@H](Cc1c[nH]c2ccccc12)NC(=O)[C@H](CCC(=O)O)NC(=O)[C@@H](N)Cc1cccc2ccccc12)C(=O)N1CCC[C@H]1C(=O)NCC(=O)N[C@@H](Cc1ccc(O)cc1)C(=O)N[C@@H](Cc1ccc(O)cc1)C(=O)N[C@@H](CCC(N)=O)C(=O)N1CC[C@H]1C(=O)N[C@@H](Cc1ccc(O)cc1)C(N)=O [1Nap--EWTPGYYQJY--NH2] (H-[1Nal]EWTPGYYQ[Aze]Y-NH2),≤ 0.5 µM
2,C[C@H](N)C(=O)N[C@@H](CCC(=O)O)C(=O)N[C@@H](Cc1c[nH]c2ccccc12)C(=O)N[C@H](C(=O)N1CCC[C@H]1C(=O)NCC(=O)N[C@@H](Cc1ccc(O)cc1)C(=O)N[C@@H](Cc1c[nH]c2ccccc12)C(=O)N[C@@H](CCC(N)=O)C(=O)N1CC[C@H]1C(=O)N[C@@H](Cc1ccc(O)cc1)C(N)=O)[C@@H](C)O [AEWTPGYWQJY--NH2] (H-AEWTPGYWQ[Aze]Y-NH2),≤ 100 µM
3,CC(=O)N[C@@H](Cc1ccc(C(=O)c2ccccc2)cc1)C(=O)N[C@@H](CCC(=O)O)C(=O)N[C@@H](Cc1c[nH]c2ccccc12)C(=O)N[C@H](C(=O)N1CCC[C@H]1C(=O)NCC(=O)N[C@@H](Cc1ccc(O)cc1)C(=O)N[C@@H](Cc1ccc(O)cc1)C(=O)N[C@@H](CCC(N)=O)C(=O)N1CC[C@H]1C(=O)N[C@@H](Cc1ccc(O)cc1)C(N)=O)[C@@H](C)O [AcBpa--EWTPGYYQJY--NH2] (Ac-[Bpa]EWTPGYYQ[Aze]Y-NH2),≤ 0.5 µM
4,CC(=O)N[C@@H](Cc1ccccc1)C(=O)N[C@@H](CCC(=O)O)C(=O)N[C@@H](Cc1ccc(C(=O)c2ccccc2)cc1)C(=O)N[C@H](C(=O)N1CCC[C@H]1C(=O)NCC(=O)N[C@@H](Cc1ccc(O)cc1)C(=O)N[C@@H](Cc1ccc(O)cc1)C(=O)N[C@@H](CCC(N)=O)C(=O)N1CC[C@H]1C(=O)N[C@@H](Cc1ccc(O)cc1)C(N)=O)[C@@H](C)O [AcFE--Bpa--TPGYYQJY--NH2] (Ac-FE[Bpa]TPGYYQ[Aze]Y-NH2),≤ 100 µM
5,CC(=O)N[C@@H](Cc1ccccc1)C(=O)N[C@@H](CCC(=O)O)C(=O)N[C@@H](Cc1c[nH]c2ccccc12)C(=O)N[C@H](C(=O)N1CCC[C@H]1C(=O)NCC(=O)N[C@@H](Cc1ccc(C(=O)c2ccccc2)cc1)C(=O)N[C@@H](Cc1ccc(O)cc1)C(=O)N[C@@H](CCC(N)=O)C(=O)N1CC[C@H]1C(=O)N[C@@H](Cc1ccc(O)cc1)C(N)=O)[C@@H](C)O [AcFEWTPG--Bpa--YQJY--NH2] (Ac-FEWTPG[Bpa]YQ[Aze]Y-NH2),≤ 0.5 µM
6,CC(=O)N[C@@H](Cc1ccccc1)C(=O)N[C@@H](CCC(=O)O)C(=O)N[C@@H](Cc1c[nH]c2ccccc12)C(=O)N[C@H](C(=O)N1CCC[C@H]1C(=O)NCC(=O)N[C@@H](Cc1ccc(O)cc1)C(=O)N[C@@H](Cc1ccc(C(=O)c2ccccc2)cc1)C(=O)N[C@@H](CCC(N)=O)C(=O)N1CC[C@H]1C(=O)N[C@@H](Cc1ccc(O)cc1)C(N)=O)[C@@H](C)O [AcFEWTPGY--Bpa--QJY--NH2] (Ac-FEWTPGY[Bpa]Q[Aze]Y-NH2),≤ 0.5 µM
7,CC(=O)N[C@@H](Cc1ccccc1)C(=O)N[C@@H](CCC(=O)O)C(=O)N[C@@H](Cc1c[nH]c2ccccc12)C(=O)N[C@H](C(=O)N1CCC[C@H]1C(=O)NCC(=O)N[C@@H](Cc1ccc(O)cc1)C(=O)N[C@@H](Cc1ccc(O)cc1)C(=O)N[C@@H](CCC(N)=O)C(=O)N1CC[C@H]1C(=O)N[C@@H](Cc1ccc(C(=O)c2ccccc2)cc1)C(N)=O)[C@@H](C)O [AcFEWTPGYYQJ--Bpa--NH2] (Ac-FEWTPGYYQ[Aze][Bpa]-NH2),≤ 100 µM
8,C[C@@H](O)[C@H](NC(=O)[C@H](Cc1c[nH]c2ccccc12)NC(=O)[C@H](CCC(=O)O)NC(=O)[C@@H](N)Cc1ccc(C(=O)c2ccccc2)cc1)C(=O)N1CCC[C@H]1C(=O)NCC(=O)N[C@@H](Cc1ccc(O)cc1)C(=O)N[C@@H](Cc1ccc(O)cc1)C(=O)N[C@@H](CCC(N)=O)C(=O)N1CC[C@H]1C(=O)N[C@@H](Cc1ccc(O)cc1)C(N)=O [Bpa--EWTPGYYQJY--NH2] (H-[Bpa]EWTPGYYQ[Aze]Y-NH2),≤ 0.5 µM
9,C[C@@H](O)[C@H](NC(=O)[C@H](Cc1ccc(C(=O)c2ccccc2)cc1)NC(=O)[C@H](CCC(=O)O)NC(=O)[C@@H](N)Cc1ccccc1)C(=O)N1CCC[C@H]1C(=O)NCC(=O)N[C@@H](Cc1ccc(O)cc1)C(=O)N[C@@H](Cc1ccc(O)cc1)C(=O)N[C@@H](CCC(N)=O)C(=O)N1CC[C@H]1C(=O)N[C@@H](Cc1ccc(O)cc1)C(N)=O [FE--Bpa--TPGYYQJY--NH2] (H-FE[Bpa]TPGYYQ[Aze]Y-NH2),> 100 µM
10,C[C@H](NC(=O)[C@@H](NC(=O)[C@H](Cc1c[nH]c2ccccc12)NC(=O)[C@H](CCC(=O)O)NC(=O)[C@@H](N)Cc1ccccc1)[C@@H](C)O)C(=O)NCC(=O)N[C@@H](Cc1ccc(O)cc1)C(=O)N[C@@H](Cc1c[nH]c2ccccc12)C(=O)N[C@@H](CCC(N)=O)C(=O)N1CC[C@H]1C(=O)N[C@@H](Cc1ccc(O)cc1)C(N)=O [FEWTAGYWQJY--NH2] (H-FEWTAGYWQ[Aze]Y-NH2),≤ 0.5 µM
11,C[C@@H](O)[C@H](NC(=O)[C@H](Cc1c[nH]c2ccccc12)NC(=O)[C@H](CCC(=O)O)NC(=O)[C@@H](N)Cc1ccccc1)C(=O)NCC(=O)NCC(=O)N[C@@H](Cc1ccc(O)cc1)C(=O)N[C@@H](Cc1c[nH]c2ccccc12)C(=O)N[C@@H](CCC(N)=O)C(=O)N1CC[C@H]1C(=O)N[C@@H](Cc1ccc(O)cc1)C(N)=O [FEWTGGYWQJY--NH2] (H-FEWTGGYWQ[Aze]Y-NH2),≤ 100 µM

# The remaining lines, values ahead:
row,IC50,Compound
1,≤ 0.5 µM,C[C@H](NC(=O)[C@@H](N)Cc1ccccc1)C(=O)N[C@@H](Cc1c[nH]c2ccccc12)C(=O)N[C@H](C(=O)N1CCC[C@H]1C(=O)NCC(=O)N[C@@H](Cc1ccc(O)cc1)C(=O)N[C@@H](Cc1c[nH]c2ccccc12)C(=O)N[C@@H](CCC(N)=O)C(=O)N1CC[C@H]1C(=O)N[C@@H](Cc1ccc(O)cc1)C(N)=O)[C@@H](C)O [FAWTPGYWQJY--NH2] (H-FAWTPGYWQ[Aze]Y-NH2)
2,≤ 100 µM,C[C@H](NC(=O)[C@H](CCC(=O)O)NC(=O)[C@@H](N)Cc1ccccc1)C(=O)N[C@H](C(=O)N1CCC[C@H]1C(=O)NCC(=O)N[C@@H](Cc1ccc(O)cc1)C(=O)N[C@@H](Cc1c[nH]c2ccccc12)C(=O)N[C@@H](CCC(N)=O)C(=O)N1CC[C@H]1C(=O)N[C@@H](Cc1ccc(O)cc1)C(N)=O)[C@@H](C)O [FEATPGYWQJY--NH2] (H-FEATPGYWQ[Aze]Y-NH2)
3,≤ 0.5 µM,C[C@H](NC(=O)[C@H](Cc1c[nH]c2ccccc12)NC(=O)[C@H](CCC(=O)O)NC(=O)[C@@H](N)Cc1ccccc1)C(=O)N1CCC[C@H]1C(=O)NCC(=O)N[C@@H](Cc1ccc(O)cc1)C(=O)N[C@@H](Cc1c[nH]c2ccccc12)C(=O)N[C@@H](CCC(N)=O)C(=O)N1CC[C@H]1C(=O)N[C@@H](Cc1ccc(O)cc1)C(N)=O [FEWAPGYWQJY--NH2] (H-FEWAPGYWQ[Aze]Y-NH2)
4,≤ 0.5 µM,C[C@@H](O)[C@H](NC(=O)[C@H](Cc1c[nH]c2ccccc12)NC(=O)[C@H](CCC(=O)O)NC(=O)[C@@H](N)Cc1ccccc1)C(=O)N1CC[C@H]1C(=O)NCC(=O)N[C@@H](Cc1ccc(O)cc1)C(=O)N[C@@H](Cc1c[nH]c2ccccc12)C(=O)N[C@@H](CCC(N)=O)C(=O)N1CC[C@H]1C(=O)N[C@@H](Cc1ccc(O)cc1)C(N)=O [FEWTJGYWQJY--NH2] (H-FEWT[Aze]GYWQ[Aze]Y-NH2)
5,≤ 0.5 µM,C[C@H](NC(=O)[C@@H]1CCCN1C(=O)[C@@H](NC(=O)[C@H](Cc1c[nH]c2ccccc12)NC(=O)[C@H](CCC(=O)O)NC(=O)[C@@H](N)Cc1ccccc1)[C@@H](C)O)C(=O)N[C@@H](Cc1ccc(O)cc1)C(=O)N[C@@H](Cc1c[nH]c2ccccc12)C(=O)N[C@@H](CCC(N)=O)C(=O)N1CC[C@H]1C(=O)N[C@@H](Cc1ccc(O)cc1)C(N)=O [FEWTPAYWQJY--NH2] (H-FEWTPAYWQ[Aze]Y-NH2)
6,≤ 0.5 µM,C[C@@H](O)[C@H](NC(=O)[C@H](Cc1c[nH]c2ccccc12)NC(=O)[C@H](CCC(=O)O)NC(=O)[C@@H](N)Cc1ccccc1)C(=O)N1CCC[C@H]1C(=O)NC(C)(C)C(=O)N[C@@H](Cc1ccc(O)cc1)C(=O)N[C@@H](Cc1c[nH]c2ccccc12)C(=O)N[C@@H](CCC(N)=O)C(=O)N1CC[C@H]1C(=O)N[C@@H](Cc1ccc(O)cc1)C(N)=O [FEWTPAibYWQJY--NH2] (H-FEWTP[Aib]YWQ[Aze]Y-NH2)
